PubChem BioAssay (NCI)
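Cells were grown in 96-well plates and exposed to each compound for 48 hours at five concentrations; endpoints were interpolated linearly between bracketing concentrations, or set to the highest concentration if not reached. Abbreviation: GI50, concentration required for 50% inhibition of growth. TGI: concentration producing complete growth inhibition.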

What was measured:
Experiment in all cases: inhibition of tumour cell growth, NCI panel, 48 h
[1] = tested on: CCRF-CEM leukemia
[2] = tested on: M14 melanoma
[3] = tested on: CAKI-1 renal
[4] = tested on: HL-60(TB) leukemia
[5] = tested on: EKVX NSCLC
[6] = tested on: HCT-15 colon
[7] = tested on: OVCAR-4 ovarian
[8] = tested on: SW-620 colon
[9] = tested on: KM12 colon
[10] = tested on: HOP-62 NSCLC

Structure (SMILES) | TGI [1] [µM] | TGI [2] [µM] | TGI [3] [µM] | TGI [4] [µM] | TGI [5] [µM] | TGI [6] [µM] | TGI [7] [µM] | TGI [8] [µM] | TGI [9] [µM] | TGI [10] [µM] | GI50 [1] [µM] | GI50 [2] [µM] | GI50 [3] [µM] | GI50 [4] [µM] | GI50 [5] [µM] | GI50 [6] [µM] | GI50 [7] [µM] | GI50 [8] [µM] | GI50 [9] [µM] | GI50 [10] [µM]
COc1ccccc1NC(=O)C1=C(C)NC(C)=C(C(=O)Nc2ccccc2OC)C1c1ccccc1OC | > 100 | > 100 | > 100 | > 100 | > 100 | > 100 | > 100 | > 100 | > 100 | > 100 |  |  |  |  |  |  |  |  |  | 
COC(=O)c1c2c(c(C)[n+]([O-])c1C)C(=O)C(NCc1ccc(F)c(F)c1)=CC2=O | 4.57 | 3.6 | 10.5 | 4.4 | 4.39 | 4.02 | 2.22 | 6.89 | 8.15 | 7.47 | 1.72 | 1.64 | 2.39 | 1.86 | 1.84 | 1.6 | 1.03 | 2.17 | 2.16 | 2.45
Cc1cccc(N=C2c3cc([N+](=O)[O-])ccc3-c3c2cc([N+](=O)[O-])cc3[N+](=O)[O-])c1 | > 100 | 4.57 | 77.9 | 13.1 | 19.7 | 10.7 | > 100 | 3.76 | 20 | 19.9 | 3.87 | 2.2 | 15.5 | 3.35 | 5.08 | 2.8 | 6.98 | 2.01 | 5.06 | 4.28
CCC[CH2][Sn]([CH2]CCC)([S]C1=NCCS1)[S]C1=NCCS1 | 0.226 | 1.24 | 0.51 | 0.881 | 2.71 | 1.74 | 2.24 | 0.441 | 2.28 | 3.55 | 0.0231 | 0.315 | 0.0928 | 0.298 | 1.34 | 0.338 | 0.964 | 0.145 | 1.02 | 2.1
CC(C)(O)[C@H]1[C@@H]2OC(=O)[C@H]1[C@]1(O)C[C@H]3OC34C(=O)O[C@H]2[C@@]41C (stereo not given in full) (tested in a mixture with another compound) | > 100 | > 100 | > 100 | > 100 | > 100 | > 100 | > 100 | > 100 | > 100 | > 100 |  |  |  |  |  |  |  |  |  | 
O=C(O)c1cccc(CC(Br)C(=O)O)c1 (stereo not given) | > 100 | > 100 | > 100 | > 100 | > 100 | > 100 | > 100 | > 100 | > 100 | > 100 |  |  |  |  |  |  |  |  |  | 
COC(=O)C1C(=O)O[C@@H](c2ccc(OC)cc2OC)C1C(=O)OC (stereo not given in full) | > 100 | > 100 | > 100 | > 100 | > 100 | > 100 | > 100 | > 100 | > 100 | > 100 |  |  |  |  |  |  |  |  |  | 
C/C(=C\c1c[nH]c2ccccc12)[N+](=O)[O-] | 4.2 | 5.65 | 18.9 | 6.46 | 27.1 | 13.7 | 21 | 26 | 15.6 | 13.6 | 1.62 | 2.57 | 5.67 | 2.3 | 10.2 | 2.48 | 7.58 | 5.78 | 3.98 | 4.04
